The text below walks through data of US6706745B1, “Biphenylamidine derivatives” (Teijin Limited, priority 1997, dated 2004).

Structures can show the parent of a compound that is named as a salt. Some results are limits rather than exact numbers.

Broadly, the IC50 is the point on the concentration scale where inhibition reaches its midpoint.

For series [1], the target named is T1, human thrombin (Homo sapiens, UniProt P00734).
T1 construct: 1 U/mL human thrombin
As to the kind of experiment: Determination of thrombin inhibiting activity, chromogenic substrate S-2238. The following applies: substrate S-2238, 30 min incubation, A405, read-out: Thrombin inhibition activity IC50. Format: biochemical. As to the method:
(2) Determination of Thrombin Inhibiting Activity:
To 70 μL of the specimen serially diluted with water, 90 μL of 100 mM Tris buffer (pH 8.4), 20 μL of 50 mM Tris buffer (pH 8.4) containing 1 U/mL human thrombin, and 2 mM substrate (Daiichi Chemical S-2238) were added and incubated for 30 min., 50μL of 50% acetic acid was added, and the absorbance (A405) were determined. As, a blank, Tris buffer was added instead of thrombin while as a control, water is added instead of the specimen. The 50% inhibition activity (IC50) was determined as the indication of thrombin inhibiting activity.

Series [2] relates to normal human plasma. Nature of the series: Determination of anticoagulation activity (APTT). The series is classed as biochemical. The conditions noted are these: concentration corresponding to 2-fold elongation of coagulation time. As to the method:
(3) Determination of Anticoagulation Activity (APTT):
To 100 μL of normal human plasma (Ci-Trol®) manufactured by DADE, 100 μL of the specimen was added, and incubated at 37° C. for 1 minute. To this solution, 100 μL of APTT reagent (manufactured by DADE) which was, retained at 37° C. was added, and after incubating at 37° C. for 2 minutes, 100 μL of 25 mM calcium chloride solution was added, and the coagulation time was determined using the coagulation measurement apparatus manufactured by AMELUNG. The coagulation time when physiological salt solution was added instead of the analyte is used as a control, the concentration of the specimen corresponding to the 2-fold elongation of this coagulation time (CT2) is calculated, and this value is used as,the indication of the anticoagulation activity.

Series [3] in a line: Determination of bioavailability (BA) in mouse. Format: in vivo. The conditions noted are these: fasted male ICR mice; oral 10 mg/kg vs intravenous 3 mg/kg; from plasma AUC. The method, then:
(5) Determination of Bioavailability (BA):
The substance for analysis was dissolved in distilled water (for oral administration; 10 mg/kg) or physiological salt solution (for intravenous administration; 3 mg/kg) to prepare a solution for administration. This solution was administered to fasted ICR mice (male, 6 weeks aged), the whole blood was extracted from the heart under ether anesthesia at 5 min. (intravenous administration group only), 15 min., 30 min., 1 hr., 2 hr. and 4 hr. after the administration, and the plasma was separated by the centrifugation (3,500 rpm, 30 min., 4° C.) to produce the specimen (n=4). Using the above method for determining FXa inhibiting activity, the calibration curve for the substance for analysis was previously prepared and the concentration of the substance for analysis in the specimen was determined. The lower area of the concentration in plasma—time curve (AUC) was calculated and then the bioavailavility in the mouse (BA) was calculated according to the following formula: [formula]

Series [4] deals with T2, human acetylcholine esterase (Homo sapiens, UniProt P22303).
T2 construct: purchased Sigma C-5400
T2 sequence (P22303 32-617 isoform P22303-2 limits assumed): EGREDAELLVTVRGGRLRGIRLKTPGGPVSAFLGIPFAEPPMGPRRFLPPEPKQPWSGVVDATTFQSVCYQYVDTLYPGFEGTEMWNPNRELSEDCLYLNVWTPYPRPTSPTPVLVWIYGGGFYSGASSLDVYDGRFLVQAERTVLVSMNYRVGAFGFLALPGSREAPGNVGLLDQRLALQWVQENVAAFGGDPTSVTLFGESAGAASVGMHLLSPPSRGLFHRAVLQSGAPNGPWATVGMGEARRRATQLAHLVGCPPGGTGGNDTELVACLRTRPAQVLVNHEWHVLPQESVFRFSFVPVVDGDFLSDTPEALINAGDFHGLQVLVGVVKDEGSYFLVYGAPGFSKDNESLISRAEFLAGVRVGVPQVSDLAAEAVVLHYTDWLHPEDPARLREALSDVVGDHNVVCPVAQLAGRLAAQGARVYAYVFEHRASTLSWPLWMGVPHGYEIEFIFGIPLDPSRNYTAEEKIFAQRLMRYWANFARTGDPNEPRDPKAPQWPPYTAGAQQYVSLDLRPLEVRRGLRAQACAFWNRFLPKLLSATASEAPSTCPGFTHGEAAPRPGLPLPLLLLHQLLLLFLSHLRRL
As to the kind of experiment: Determination of acetylcholine esterase (AChE) inhibiting activity. Format: biochemical. The conditions noted are these: read-out: AChE inhibition activity IC50. The method, then: (4) Determination of Acetylcholine Esterase (AChE) Inhibiting Activity
The substance for analysis was dissolved in distilled water as specimen. To 50 μL of the specimen serially diluted, 50 μL of enzyme solution, wherein human acetylcholine esterase (manufactured by Sigma, C-5400) had been dissolved in distilled water at 0.1 U/mL was added. To this solution, 50 μL of the solution which was prepared by dissolving 5,5′-dithiobis (manufactured by Nacarai Tesque, 141-01) in phosphate buffer (0.1M NaH2PO4—Na2HPO4, pH 7.0) at 0.5 mM is,added and mixed, and reacted with 50 μL of the solution wherein acetylthiocholine iodide (Wako Company, 017-09313) had been dissolved in phosphate buffer at 3 mM, at room temperature. As a control distilled water was added instead of the substance for analysis and the absorbance (A450) was determined over time. As a blank, phosphate buffer was added instead of the enzyme solution and the 50% inhibition activity (IC50),was determined.

Series [5] deals with human FXa (Homo sapiens, UniProt P00742). As to the kind of experiment: Determination of inhibiting activity of activated blood coagulation factor X (FXa), chromogenic substrate S-2765. Format: biochemical. The following applies: substrate S-2765, 30 min incubation, A405, read-out: Fxa inhibition activity IC50. As to the method: (1) Determination of Inhibiting Activity of Activated Blood Coagulation Factor X (FXa):
The substance for analysis was dissolved in water or water wherein a suitable concentration of organic solvents (DMSO ethanol or .methanol) had been added, as a specimen. To 70 μL of the specimen serially diluted with water, 90 μL of 100 mM Tris buffer (pH 8.4), 20 μL of 50 mM Tris buffer (pH 8.4) containing 50 mU/mL human FXa, and 2 mM substrate (Daiichi Chemical S-2765) were added and incubated for 30 min., 50 μL of 50% acetic acid was added, and the absorbance (A405) were determined. As a blank, Tris buffer was added instead of FXa while, as a control, water was added instead of the specimen. The 50% inhibition activity (IC50) was determined as the indication of FXa inhibiting activity.

Sequence of human FXa (P00742 235-488 limits assumed): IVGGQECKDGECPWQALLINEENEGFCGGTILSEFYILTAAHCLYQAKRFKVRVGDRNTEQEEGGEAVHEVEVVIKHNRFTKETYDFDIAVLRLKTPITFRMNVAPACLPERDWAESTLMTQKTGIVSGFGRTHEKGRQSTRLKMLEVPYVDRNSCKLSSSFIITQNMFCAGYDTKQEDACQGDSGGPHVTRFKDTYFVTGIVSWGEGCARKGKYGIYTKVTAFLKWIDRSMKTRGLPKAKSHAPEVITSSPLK
Sequence of human FXa (P00742 41-179 partner limits assumed): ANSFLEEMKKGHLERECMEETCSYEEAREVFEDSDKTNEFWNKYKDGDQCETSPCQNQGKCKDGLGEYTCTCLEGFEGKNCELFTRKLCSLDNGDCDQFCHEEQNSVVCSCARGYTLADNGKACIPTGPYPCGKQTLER

Consider `CC(=N)N1CCC(COCc2cc(CCC(=O)O)cc(-c3cccc(C(=N)N)c3)c2)CC1` [Example 82], for which the IC50 in series [1] is greater than 1000 µM; in series [4] it was 170 µM; in series [5] it was 0.13 µM. Further, in series [2], the “APTT CT2” value was found to be 1.9 µM. The “Mouse BA” value in series [3] is 11%.
Consider `CC(=N)N1CCC(CN(CCO)Cc2cc(C(=O)O)cc(-c3cccc(C(=N)N)c3)c2)CC1` [Example 81], for which the IC50 is 820 µM in series [1], 130 µM in series [4] and 0.21 µM in series [5]. For the same compound, the “APTT CT2” value in series [2] turned out to be 2.8 µM. For the same compound, the “Mouse BA” value in series [3] is 7%.
Regarding `N=C(N)c1cccc(-c2cc(CNCC3CCCCC3)cc(C(=O)O)c2)c1` [Example 73], the IC50 in series [1] is greater than 1000 µM; in series [4] it was greater than 250 µM; in series [5] it was 1.7 µM. For the same compound, the “APTT CT2” value in series [2] turned out to be 13 µM.
Turning to `CC(=N)N1CCC(COCc2cc(C(=O)O)cc(-c3cccc(C(=N)N)c3)c2)CC1` [Example 61, 3-(3-Amidinophenyl)-5-[(1-acetoimidoyl-4-piperidinyl)methoxymethyl]benzoic Acid.hydrochloride], the results for the IC50 in series [1], in series [4] and in series [5] were greater than 1000 µM, 49 µM and 0.063 µM, respectively. Also, the “APTT CT2” value in series [2] turned out to be 0.76 µM. Besides, the “Mouse BA” value in series [3] is reported as 10%.
Taken in the same sequence, the figures for `CC(=N)N1CCC(CNCc2cc(C(=O)O)cc(-c3cccc(C(=N)N)c3)c2)CC1` [Example 70] were greater than 1000 µM, 140 µM, 0.19 µM, 2.0 µM and 11%.
In the same order, the values of `CC(=N)N1CCC(CN(C)Cc2cc(C(=O)O)cc(-c3cccc(C(=N)N)c3)c2)CC1` [Example 74] are greater than 1000 µM, 150 µM, 0.59 µM, 5.4 µM and 13%.
Taken in the same sequence, the figures for `N=C(N)c1cccc(-c2cc(CNCC3CCN(CCO)CC3)cc(C(=O)O)c2)c1` [Example 72] were greater than 1000 µM, greater than 250 µM, 1.2 µM, 11 µM and 13%.
